Assay in all cases: MIC in broth
Common to all, as to type: cell-based

In assay [1] the test system is Citrobacter freundii E8.
The test system of assay [2] is Enterobacter cloacae N1 [T753].
Assay [3] has as its system Escherichia coli JT39 [E96].
The test system of assay [4] is Escherichia coli ESS.
The test system of assay [5] is Klebsiella aerogenes A [T767].
The subject of assay [6] is Proteus mirabilis 977 [13].
In assay [7] the test system is Proteus morganii 1580. The following applies: Morganella morganii.
Assay [8] deals with Proteus rettgeri WM16. Particulars: Providencia rettgeri.
The subject of assay [9] is Proteus vulgaris W091.
In assay [10] the test system is Pseudomonas aeruginosa A [11].
For assay [11], the system named is Salmonella typhimurium CT10. Particulars: Salmonella enterica.
Assay [12] has as its system Serratia marcescens US20.
Assay [13] has as its system Shigella sonnei MB11967.
Assay [14] relates to Bacillus subtilis A.
Assay [15] relates to Staphylococcus aureus Oxford.
Assay [16] has as its system Staphylococcus aureus Russell [MB9].
The subject of assay [17] is Staphylococcus aureus 1517.
Assay [18] deals with Streptococcus faecalia I.
For assay [19], the system named is Streptococcus pneumoniae CN33.
The test system of assay [20] is Streptococcus pyogenes CN10.
Assay [21] deals with Escherichia coli 0111 [E8].

The structures appear in SMILES notation. ≈ marks a conversion by molar mass, not a printed value.

One may read the MIC as the lowest concentration that inhibits growth of the organism. Lower therefore signals inhibition by little substance.

As to `CC(=O)NCCSC1=C(C(=O)O)N2C(=O)[C@H]([C@@H](C)n3cc(C(=O)O)nn3)[C@H]2C1` [Example 4, Disodium (SR,6S) - 3 - (2 - acetamidoethylthio) - 6 - [(R) - 1 - (4 - carboxytriazol - 1 - yl)ethyl] - 7 - oxo - 1 - azabicyclo [3.2.0.]hept - 2 - ene - 2 - carboxylate.], the MIC in [1] is 1.6 µg/mL; in [2] it was 3.1 µg/mL; in assay [3], 3.1 µg/mL; in [4], 1.6 µg/mL; in assay [5], 3.1 µg/mL; in assay [6] it was 12.5 µg/mL. In addition, the MIC in assay [7] was 25 µg/mL; in assay [8], 6.2 µg/mL; in assay [9] it was 6.2 µg/mL; in assay [10], 100 µg/mL; in assay [11] it was 6.2 µg/mL; in assay [12], 6.2 µg/mL. The minimal inhibitory concentration (MIC) is 12.5 µg/mL in assay [13]; 3.1 µg/mL in [14]; 6.2 µg/mL in [15]; 6.2 µg/mL in assay [16]; more than 100 µg/mL in assay [17]; 100 µg/mL in assay [18]. Besides, the minimum inhibitory concentration (MIC) in assay [19] and in [20] was 1.6 µg/mL each time.
Take `CC(=O)N/C=C/SC1=C(C(=O)O)N2C(=O)[C@H]([C@@H](C)n3cc(C(=O)O)nn3)[C@H]2C1` [Example 6, Disodium (5R,6S)-3-[(E)-2-acetamidoethenylthio]-6-[(R)-1-(4-carboxytriazol-1-yl)ethyl]-7-oxo-1-azabicyclo [3.2.0.] hept-2-ene-2-carboxylate]: the MIC was determined as 25 µg/mL in assay [1]; 25 µg/mL in assay [2]; 12.5 µg/mL in [21]; 3.1 µg/mL in assay [3]; 1.6 µg/mL in assay [4]; 1.6 µg/mL in [5]. Besides, the MIC in assay [6] was found to be 12.5 µg/mL; in assay [7] it was 12.5 µg/mL; in [8], 3.1 µg/mL; in assay [9], 12.5 µg/mL; in assay [10], 50 µg/mL; in assay [11], 1.6 µg/mL. Also, the MIC in assay [12] was 6.2 µg/mL; in assay [13], 3.1 µg/mL; in assay [14], 6.2 µg/mL; in [15], 6.2 µg/mL; in assay [16] it was 6.2 µg/mL; in assay [17] it was 25 µg/mL. In assay [18], this compound gave a minimal inhibitory concentration (MIC) of 100 µg/mL.
Regarding `CC(=O)N/C=C/SC1=C(C(=O)O)N2C(=O)[C@H]([C@@H](C)n3cc(C(=O)OCCN)nn3)[C@H]2C1` [Example 7, (5R,6S)-3-[(E)-2-acetamidoethenylthio]-6-[(R)-1-(4-(2-aminoethyloxycarbonyl)triazol-1-yl]ethyl]-7-oxo-1-azabicyclo[3.2.0.]hept-2-ene-2-carboxylic acid], the minimal inhibitory concentration (MIC) in [1] turned out to be 0.8 µg/mL (≈ 1.78 µM); in assay [2], 1.6 µg/mL (≈ 3.55 µM); in assay [21], 1.6 µg/mL (≈ 3.55 µM); in assay [3], 0.8 µg/mL (≈ 1.78 µM); in [5], 3.1 µg/mL (≈ 6.88 µM); in assay [6], 25 µg/mL (≈ 55.5 µM). For the same compound, the MIC in assay [8] was determined as 6.2 µg/mL (≈ 13.8 µM); in assay [9], 25 µg/mL (≈ 55.5 µM); in assay [10], 100 µg/mL (≈ 222 µM); in assay [11], 1.6 µg/mL (≈ 3.55 µM); in assay [12] it was 3.1 µg/mL (≈ 6.88 µM); in [13] it was 1.6 µg/mL (≈ 3.55 µM). In addition, the MIC in assay [14] was 0.8 µg/mL (≈ 1.78 µM); in [15], 0.4 µg/mL (≈ 0.888 µM); in assay [16] it was 0.4 µg/mL (≈ 0.888 µM); in assay [17] it was 12.5 µg/mL (≈ 27.7 µM); in [18], 50 µg/mL (≈ 111 µM); in assay [20], 0.4 µg/mL (≈ 0.888 µM).
